# Experimental data taken from US11352350B2, “IRAK degraders and uses thereof” (Kymera Therapeutics, Inc., priority 2018, dated 2022).
# Molecular target: IRAK4 (Homo sapiens (Human), UniProt Q9NWZ3)
# Assay: Deep tandem mass tag (TMT) proteomics in OCI-LY10
# Assay type: cell-based
# Conditions: OCI-LY10, 8 hours
# Method: Total protein was isolated from OCI-LY10 cells treated with 10 nM I-30, 30 nM I-30 and 30 nM 2-{2-[(cyclopropylmethyl)amino]pyridin-4-yl}-N-[3-(difluoromethyl)-1-[4-({[2-(2-{3-[3-methyl-1-(1-methyl-2,6-dioxopiperidin-3-yl)-2-oxo-2,3-dihydro-1H-1,3-benzodiazol-4-yl]propoxy}ethoxy)ethyl]amino}methyl)phenyl]-1H-pyrazol-4-yl]-1,3-oxazole-4-carboxamide for 8 hours. Vehicle (DMSO)-treated cells were used as controls. Protein lysates, 2 biological replicates per condition, were prepared at 4 C in 8M urea, 75 mM NaCl, 1 mM EDTA in 50 mM Tris HCl (pH 8), 10 mM NaF, phosphatase inhibitor cocktail 2 (1:100; Sigma, P5726) and cocktail 3 (1:100; Sigma, P0044), 2 μg/mL aprotinin (Sigma, A6103), 10 μg/mL Leupeptin (Roche, 11017101001), and 1 mM PMSF (Sigma, 78830). Lysates were spun at 20,000 rcf for 10 min and supernatant (containing extracted proteins) was transferred to a clean microcentrifuge tube. Protein concentrations were determined using the Pierce BCA assay. […] Online fractionation was performed using a nanoflow Proxeon EASY-nLC 1200 UHPLC system (Thermo Fisher Scientific) and separated peptides were analyzed on a benchtop Orbitrap Q Exactive plus mass spectrometer (Thermo Fisher Scientific). All data were analyzed using Spectrum Mill software package (Agilent Technologies). […] In total, 10,992 proteins were quantified. […]
# IRAK4, sequence (Q9NWZ3 whole entry): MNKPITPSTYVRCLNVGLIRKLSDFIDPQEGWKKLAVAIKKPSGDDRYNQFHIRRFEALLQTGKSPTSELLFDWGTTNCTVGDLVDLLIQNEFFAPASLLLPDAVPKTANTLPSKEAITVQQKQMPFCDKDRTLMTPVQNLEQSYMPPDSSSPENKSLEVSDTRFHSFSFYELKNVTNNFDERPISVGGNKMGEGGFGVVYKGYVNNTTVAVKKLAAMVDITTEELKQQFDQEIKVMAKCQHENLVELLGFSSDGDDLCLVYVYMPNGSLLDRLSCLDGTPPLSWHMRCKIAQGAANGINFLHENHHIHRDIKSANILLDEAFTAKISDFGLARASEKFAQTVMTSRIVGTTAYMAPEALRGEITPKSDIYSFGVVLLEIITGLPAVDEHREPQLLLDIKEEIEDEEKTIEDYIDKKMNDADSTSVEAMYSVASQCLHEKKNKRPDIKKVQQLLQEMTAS
compound,measurement,value
"CN(CCCOCCCc1cccc2c1n(C)c(=O)n2C1CCC(=O)NC1=O)C[C@H]1CC[C@H](n2cc(NC(=O)c3coc(-c4ccnc(NCC5CC5)c4)n3)c(C(F)F)n2)CC1 (mixture of isomers) [I-30, 2-[2-(Cyclopropylmethylamino)-4-pyridyl]-N-[3-(difluoromethyl)-1-[4-[[3-[3-[1-(2,6-dioxo-3-piperidyl)-3-methyl-2-oxo-benzimidazol-4-yl]propoxy]propyl-methyl-amino]methyl]cyclohexyl]pyrazol-4-yl] oxazole-4-carboxamide]",selectivity for IRAK4 vs. other proteins in OCI-LY10 (proteomics),"highly selective for IRAK4 vs. >10,000 other proteins"
